# Article PMC11600623 (Clinical and Translational Science, 2024)
# Read-outs that look alike come from different tables or passages of the source.
# Key:
# Assay type in all cases: in vivo, human
# [1] = Population PK model of AC886
# [2] = Influence of covariates on steady-state exposure metrics
# [3] = Population PK model of quizartinib
# [4] = final model, typical subject, f MET fixed to 0.5
# [5] = newly diagnosed AML vs R/R AML and non-AML reference
# [6] = residual unexplained variability
# [7] = newly diagnosed AML vs R/R AML reference
smiles,measurement,setting,value
CC(C)(CO)c1cc(NC(=O)Nc2ccc(-c3cn4c(n3)sc3cc(OCCN5CCOCC5)ccc34)cc2)no1 [AC886],IIV (CV) for CLAC886,[1]; AML patients,74%
same,Interindividual variability of systemic clearance,[1]; abstract statement for both moieties,approximately 70 % coefficient of variation
same,Fractional change in CLAC886 for Black race,[1]; final model covariate effect,0.488
same,Fractional change in CLAC886 for non-AML subjects,[1]; final model covariate effect,0.843
same,Fractional change in CLAC886 with strong CYP3A inhibitors,[1]; final model covariate effect,0.298
same,"Fractional change in V c,AC886 with strong CYP3A inhibitors",[1]; final model covariate effect,2.79
same,Q AC886 (apparent intercompartmental clearance),"[1]; final model, typical subject",3.76 L/h
same,"V p,AC886 (apparent peripheral volume of distribution)","[1]; final model, typical subject",68.5 L
same,CLAC886 (apparent CL of AC886),[1]; [4],4.61 L/h
same,"V c,AC886 (apparent central volume of distribution)",[1]; [4],8.93 L
same,IIV CLAC886 AML patients,[1]; interindividual variability,0.740 CV
same,IIV CLAC886 non-AML subjects,[1]; interindividual variability,0.516 CV
same,"IIV V c,AC886",[1]; interindividual variability,1.36 CV
same,Fractional change in f MET during Consolidation,[1]; [5],0.272
same,Fractional change in f MET during Continuation,[1]; [5],−0.249
same,Fractional change in f MET during Induction,[1]; [5],0.715
same,Additive RUV log scale AML patients,[1]; [6],0.452 CV
same,Additive RUV log scale non-AML subjects,[1]; [6],0.312 CV
same,Change of exposure compared to all other race categories,"[2]; Black race, median difference",~0.7 fold
CC(C)(C)c1cc(NC(=O)Nc2ccc(-c3cn4c(n3)sc3cc(OCCN5CCOCC5)ccc34)cc2)no1 [quizartinib],Increase of exposure,[2]; concomitant administration of strong CYP3A inhibitors,~2 fold
same,Exposure in non-AML subjects compared to AML patients,[2]; higher in non-AML subjects,approximately 1.7 fold
same,Increase of steady-state area under the curve during the dosing interval (AUCss),[2]; use of strong CYP3A inhibitors,1.8 fold
same,IIV D1,[3],82 % coefficient of variation (CV)
same,"IIV Q 1,quiz",[3],69 % CV
same,IIV (CV) for F rel,[3]; AML patients,44%
same,"Age effect on V p1,quiz",[3]; exponential covariate model,0.0152 1/year
same,D1 (duration of zero-order input to depot compartment),[3]; final model,0.710 h
same,Shape box-cox parameter for IIV on F rel for AML patients,[3]; final model,−1.28
same,T lag (absorption lag time),[3]; final model,0.196 h
same,k a (first-order absorption rate constant),[3]; final model,1.10 h⁻¹
same,Fractional change in CLquiz for Black race,[3]; final model covariate effect,−0.261
same,Fractional change in CLquiz with strong CYP3A inhibitors,[3]; final model covariate effect,−0.301
same,Fractional change in F rel with moderate CYP3A inhibitors,[3]; final model covariate effect,0.116
same,Fractional change in F rel with strong CYP3A inhibitors,[3]; final model covariate effect,0.273
same,"Fractional change in V c,quiz for females",[3]; final model covariate effect,−0.169
same,Fractional change in k a for non-AML subjects,[3]; final model covariate effect,−0.188
same,"Q 1,quiz (apparent intercompartmental clearance 1)","[3]; final model, typical subject",40.7 L/h
same,"Q 2,quiz (apparent intercompartmental clearance 2)","[3]; final model, typical subject",0.757 L/h
same,"V p1,quiz (apparent peripheral volume of distribution 1)","[3]; final model, typical subject",312 L
same,"V p2,quiz (apparent peripheral volume of distribution 2)","[3]; final model, typical subject",91.9 L
same,Vd,"[3]; human, plasma, oral",371 L
same,clearance,"[3]; human, plasma, oral",111 mL/min
same,IIV D1,[3]; interindividual variability,0.821 CV
same,IIV F rel AML patients,[3]; interindividual variability,0.444 CV
same,IIV F rel non-AML subjects,[3]; interindividual variability,0.256 CV
same,"IIV Q 1,quiz",[3]; interindividual variability,0.691 CV
same,IIV T lag,[3]; interindividual variability,0.647 CV
same,"IIV V c,quiz",[3]; interindividual variability,0.186 CV
same,IIV k a,[3]; interindividual variability,0.423 CV
same,Fractional change in F rel during Consolidation,[3]; [7],−0.192
same,Fractional change in F rel during Continuation,[3]; [7],0.418
same,Fractional change in F rel during Induction,[3]; [7],−0.419
same,F rel for non-AML subjects,[3]; relative to AML patients,1.73
same,Additive RUV log scale AML patients,[3]; [6],0.440 CV
same,Additive RUV log scale non-AML subjects,[3]; [6],0.102 CV
